From patent publication EP4813463A2, “TYK2 INHIBITORS AND COMPOSITIONS AND METHODS THEREOF” (Lynk Pharmaceuticals Co. Ltd., priority 2023, dated 2024)

Key:
TYK2-JH2 domain = biological target: T1, TYK2-JH2 domain (Homo sapiens, UniProt P29597); experiment: Binding activity test for JH2 domain of TYK2 (Tb-antibody/tracer FRET); conditions: for IC50: JH2 domain enzyme, 60 min at 25°C, then 4°C overnight, read-out: TYK2 JH2 Binding IC50; for JAK1/TYK2 selectivity: ratio of JAK1 JH2 to TYK2 JH2 binding IC50
T1 construct: JAK1-JH2 domain or TYK2-JH2 domain enzyme in assay buffer
Summary of the method: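 Competitive TR-FRET binding: compounds dispensed as an 11-point 3-fold dilution series, then Tb-labelled antibody and tracer added to the JH2 protein system. Incubated at 25°C, then overnight at 4°C; FRET signal read on Envision and IC50 (nM) derived.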

JAK1-JH2 domain = biological target: T2, JAK1-JH2 domain (Homo sapiens, UniProt P23458); experiment: Binding activity test for JH2 domain of JAK1 (Tb-antibody/tracer FRET); conditions: JH2 domain enzyme; 60 min at 25°C, then 4°C overnight; read-out: JAK1 JH2 Binding IC50
T2 construct: JAK1-JH2 domain or TYK2-JH2 domain enzyme in assay buffer
Protocol: Binding Activity test for JH2 domain of JAK1 and TYK2 […] Add 8μL/well in echo source plate, echo will add 75nL/well with 3-fold serial dilution for 11 points in assay plate. 75nL DMSO for high control and low control. […] For low control, add 5μL/well assay buffer. And then spin down at 1000rpm and centrifuge for 30 seconds. After enzyme system prepared, add 5μL of Tb-antibody solution into each well of assay plate. Spin down at 1000 rpm and centrifuge for 30sec. After Tb-antibody added, also add 5μL of tracer into the assay plate. Spin down at 1000rpm and centrifuge for 30sec. Incubate for […] at 25°C firstly and then continue to incubate the plate at 4°C overnight. Read by envision in FRET mode. The Luminescence value was recorded by a multi-label reader Envision (PerkinElmer). […] Table 2. IC50 on JH2 domain activity (nM)

[1] = system: Ba/F3-FL-TYK2-P760L cells; experiment: Anti-proliferative assay in engineered Ba/F3 cells (Cell-Titer Glo, 72 h); format: cell-based; conditions: Mus musculus, BaF3, 72 h, 72 h compound treatment, concentration that causes 50% growth inhibition, read-out: Baf3-FL-T2P760L
Summary of the method: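 Ba/F3 cells carrying Tel-dimerization/JAK kinase fusion, IL-3-independent, in RPMI-1640 + 10% FBS; 9-point 3-fold dilutions from 20 µM (0.1% DMSO) added after 24 h, 72 h at 37 °C. Viability by Cell-Titer Glo ATP luminescence; % inhibition versus DMSO cells, blank-corrected, giving IC50.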

T1 sequence (P29597 589-875 limits assumed): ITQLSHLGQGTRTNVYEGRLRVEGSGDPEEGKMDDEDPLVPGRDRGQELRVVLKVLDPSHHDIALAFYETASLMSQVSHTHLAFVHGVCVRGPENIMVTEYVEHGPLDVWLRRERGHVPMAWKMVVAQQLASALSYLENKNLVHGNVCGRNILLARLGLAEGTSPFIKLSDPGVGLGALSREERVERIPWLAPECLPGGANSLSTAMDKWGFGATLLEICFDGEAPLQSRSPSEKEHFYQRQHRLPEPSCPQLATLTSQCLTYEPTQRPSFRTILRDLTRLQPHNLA
T2 sequence (P23458 583-855 limits assumed): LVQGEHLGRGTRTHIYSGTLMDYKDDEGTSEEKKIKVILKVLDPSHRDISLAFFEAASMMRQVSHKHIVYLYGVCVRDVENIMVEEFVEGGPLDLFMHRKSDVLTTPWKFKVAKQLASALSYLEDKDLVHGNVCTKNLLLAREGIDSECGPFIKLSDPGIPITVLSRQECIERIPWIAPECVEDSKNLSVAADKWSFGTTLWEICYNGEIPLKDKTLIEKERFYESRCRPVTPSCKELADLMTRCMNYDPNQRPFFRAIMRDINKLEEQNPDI

CCONC(=O)c1cnc(NC(=O)C2CC2)cc1Nc1nn(C)c2ccc(C(OC)C(F)(F)F)c(OC)c12 (stereo not drawn) [Example 75, 6-(Cyclopropanecarboxamido)-N-ethoxy-4-((4-methoxy-1-methyl-5-(2,2,2-trifluoro-1-methoxyethyl)-1H-indazol-3-yl)amino)nicotinamide]
IC50 (TYK2-JH2 domain): 0.09 nM | JAK1/TYK2 selectivity (TYK2-JH2 domain): 274.63 | IC50 (JAK1-JH2 domain): 24.7 nM

[2H]C([2H])([2H])NC(=O)c1cnc(Nc2ccc(N3CCOCC3)cn2)cc1Nc1nn(C)c2ccc([C@H](OC)C(F)(F)F)c(OC)c12 [Example 173, (S)-4-((4-methoxy-1-methyl-5-(2,2,2-trifluoro-1-methoxyethyl)-1H-indazol-3-yl)amino)-N-(methyl-d3)-6-((5-morpholinopyridin-2-yl)amino)nicotinamide]
IC50 [1]: 0.401 nM | IC50 (TYK2-JH2 domain): 0.161 nM | JAK1/TYK2 selectivity (TYK2-JH2 domain): 14.83 | IC50 (JAK1-JH2 domain): 2.39 nM

[2H]C([2H])([2H])NC(=O)c1cnc(NC(=O)C2CC2)cc1Nc1cnn2ccc(C(=O)OC)c(OC)c12 [Example 6, Methyl 3-((2-(cyclopropanecarboxamido)-5-((methyl-d3)carbamoyl)pyridin-4-yl)amino)-4-methoxypyrazolo[1,5-a]pyridine-5-carboxylate]
IC50 [1]: 146 nM | IC50 (TYK2-JH2 domain): 0.482 nM | JAK1/TYK2 selectivity (TYK2-JH2 domain): 15.4 | IC50 (JAK1-JH2 domain): 7.45 nM

COC(=O)c1cnc(NC(=O)C2CC2)cc1Nc1nccc(-c2cnn(C)n2)c1OC [Example 62, Methyl 6-(cyclopropanecarboxamido)-4-((3-methoxy-4-(2-methyl-2H-1,2,3-triazol-4-yl)pyridin-2-yl)amino)nicotinate]
IC50 [1]: > 1000 nM | IC50 (TYK2-JH2 domain): 0.98 nM | JAK1/TYK2 selectivity (TYK2-JH2 domain): 156.97 | IC50 (JAK1-JH2 domain): 154 nM

[2H]C([2H])([2H])NC(=O)c1cnc(NC(=O)[C@@H]2C[C@@H]2F)cc1Nc1cnn2cnc(OC)c(OC)c12 [Example 36, 4-((4,5-Dimethoxypyrazolo[1,5-c]pyrimidin-3-yl)amino)-6-((1S,2S)-2-fluorocyclopropane-1-carboxamido)-N-(methyl-d3)nicotinamide]
IC50 [1]: 1770 nM | IC50 (TYK2-JH2 domain): 4.55 nM | JAK1/TYK2 selectivity (TYK2-JH2 domain): 56.0 | IC50 (JAK1-JH2 domain): 255 nM

[2H]C([2H])([2H])n1nc(Nc2cc(NC(=O)C3CC3)ncc2C(=O)OC)c2c(OC)c(C(OC)C(F)F)ccc21 (stereo not drawn) [Example 69, Methyl 6-(cyclopropanecarboxamido)-4-((5-(2,2-difluoro-1-methoxyethyl)-4-methoxy-1-(methyl-d3)-1H-indazol-3-yl)amino)nicotinate]
IC50 (TYK2-JH2 domain): 0.13 nM | JAK1/TYK2 selectivity (TYK2-JH2 domain): 114.31 | IC50 (JAK1-JH2 domain): 14.9 nM

CCn1nc(Nc2cc(NC(=O)C3CC3)ncc2C(=O)OC)c2c(OC)c(C(OC)C(F)(F)F)ccc21 (single isomer, unassigned) [Example 66A, Methyl (R*)-6-(cyclopropanecarboxamido)-4-((1-ethyl-4-methoxy-5-(2,2,2-trifluoro-1-methoxyethyl)-1H-indazol-3-yl)amino)nicotinate]
IC50 (TYK2-JH2 domain): 2.81 nM | JAK1/TYK2 selectivity (TYK2-JH2 domain): 106.23 | IC50 (JAK1-JH2 domain): > 298 nM

COc1c([C@H](OC)C(F)(F)F)ccc2c1c(Nc1cc(NC(=O)C3CC3)ncc1C(=O)O)nn2C [Example 77, (S)-6-(Cyclopropanecarboxamido)-4-((4-methoxy-1-methyl-5-(2,2,2-trifluoro-1-methoxyethyl)-1H-indazol-3-yl)amino)nicotinic acid]
IC50 [1]: > 1000 nM | IC50 (TYK2-JH2 domain): 0.08 nM | JAK1/TYK2 selectivity (TYK2-JH2 domain): 2307.96 | IC50 (JAK1-JH2 domain): 185 nM

CNC(=O)c1nnc(NC(=O)C2CC2)cc1Nc1nc2ccccn2n1 [Example 185, 4-([1,2,4]Triazolo[1,5-a]pyridin-2-ylamino)-6-(cyclopropanecarboxamido)-N-methylpyridazine-3-carboxamide]
IC50 [1]: 89.1 nM | IC50 (TYK2-JH2 domain): 0.565 nM | JAK1/TYK2 selectivity (TYK2-JH2 domain): 16.30 | IC50 (JAK1-JH2 domain): 9.21 nM

[2H]C([2H])([2H])NC(=O)c1cnc(NC(=O)C2CC2)cc1Nc1cnn2ccc(C(O)C(F)(F)F)cc12 (stereo not drawn) [Example 41, 6-(Cyclopropanecarboxamido)-N-(methyl-d3)-4-((5-(2,2,2-trifluoro-1-hydroxyethyl)pyrazolo[1,5-a]pyridin-3-yl)amino)nicotinamide]
IC50 [1]: > 5000 nM | IC50 (TYK2-JH2 domain): 46.8 nM | JAK1/TYK2 selectivity (TYK2-JH2 domain): >6.37 | IC50 (JAK1-JH2 domain): > 298 nM

[2H]C([2H])([2H])OC(=O)c1nnc(NC(=O)C2CC2)cc1Nc1nc2ccc(N3CC(OC)C3)cn2n1 [Example 125, Methyl-d3 6-(cyclopropanecarboxamido)-4-((6-(3-methoxyazetidin-1-yl)-[1,2,4]triazolo[1,5-a]pyridin-2-yl)amino)pyridazine-3-carboxylate]
IC50 (TYK2-JH2 domain): 52.4 nM | JAK1/TYK2 selectivity (TYK2-JH2 domain): >5.70 | IC50 (JAK1-JH2 domain): > 298 nM

COC(=O)c1cnc(NC(=O)C2CC2)cc1Nc1nn(C)c2ccc([C@@H](OC)C(F)(F)F)c(OC)c12 [Example 45A, Methyl (R)-6-(cyclopropanecarboxamido)-4-((4-methoxy-1-methyl-5-(2,2,2-trifluoro-1-methoxyethyl)-1H-indazol-3-yl)amino)nicotinate]
IC50 [1]: 110 nM | IC50 (TYK2-JH2 domain): 0.826 nM | JAK1/TYK2 selectivity (TYK2-JH2 domain): >361.38 | IC50 (JAK1-JH2 domain): > 298 nM

[2H]C([2H])([2H])NC(=O)c1cnc(NC(=O)C2CC2)cc1Nc1nn(C)c2ccc(C(C)C(F)(F)F)c(OC)c12 (stereo not drawn) [Example 191, 6-(Cyclopropanecarboxamido)-4-((4-methoxy-1-methyl-5-(1,1,1-trifluoropropan-2-yl)-1H-indazol-3-yl)amino)-N-(methyl-d3)nicotinamide]
IC50 [1]: 2.51 nM | IC50 (TYK2-JH2 domain): 0.132 nM | JAK1/TYK2 selectivity (TYK2-JH2 domain): 45.15 | IC50 (JAK1-JH2 domain): 5.96 nM

COc1c([C@H](OC)C(F)(F)F)ccn2ncc(Nc3cc(NC(=O)C4CC4)ncc3C(=O)CC#N)c12 [Example 91, (S)-N-(5-(2-cyanoacetyl)-4-((4-methoxy-5-(2,2,2-trifluoro-1-methoxyethyl)pyrazolo[1,5-a]pyridin-3-yl)amino)pyridin-2-yl)cyclopropanecarboxamide]
IC50 [1]: 1380 nM | IC50 (TYK2-JH2 domain): 5.24 nM | JAK1/TYK2 selectivity (TYK2-JH2 domain): >56.93 | IC50 (JAK1-JH2 domain): > 298 nM

CCn1nc(Nc2cc(NC(=O)C3CC3)ncc2C(=O)OC)c2c(OC)c(C(O)C(F)(F)F)ccc21 (single isomer, unassigned) [Example 70B, Methyl (R*)-6-(cyclopropanecarboxamido)-4-((1-ethyl-4-methoxy-5-(2,2,2-trifluoro-1-hydroxyethyl)-1H-indazol-3-yl)amino)nicotinate]
IC50 (TYK2-JH2 domain): 2.12 nM | JAK1/TYK2 selectivity (TYK2-JH2 domain): 22.26 | IC50 (JAK1-JH2 domain): 47.2 nM

CCOC(=O)c1nnc(NC(=O)C2CC2)cc1Nc1cccc(-c2ncn(C)n2)c1OC [Example 86, Ethyl 6-(cyclopropanecarboxamido)-4-((2-methoxy-3-(1-methyl-1H-1,2,4-triazol-3-yl)phenyl)amino)pyridazine-3-carboxylate]
IC50 (TYK2-JH2 domain): > 298 nM | IC50 (JAK1-JH2 domain): > 298 nM

[2H]C([2H])([2H])NC(=O)c1cnc(NC(=O)C2CC23CC3)cc1Nc1nn(C)c2ccc([C@H](O)C(F)(F)F)c(OC)c12 (stereo partly drawn) [Example 199, 4-((4-Methoxy-1-methyl-5-((S)-2,2,2-trifluoro-1-hydroxyethyl)-1H-indazol-3-yl)amino)-N-(methyl-d3)-6-(spiro[2.2]pentane-1-carboxamido)nicotinamide]
IC50 (TYK2-JH2 domain): 0.091 nM | JAK1/TYK2 selectivity (TYK2-JH2 domain): 61.34 | IC50 (JAK1-JH2 domain): 5.58 nM

COC(=O)c1cnc(NC(=O)C2CC2)cc1Nc1nsc2ccc(C(OC)C(F)(F)F)c(OC)c12 (single isomer, unassigned) [Example 67B, Methyl (R*)-6-(cyclopropanecarboxamido)-4-((4-methoxy-5-(2,2,2-trifluoro-1-methoxyethyl)benzo[d]isothiazol-3-yl)amino)nicotinate]
IC50 (TYK2-JH2 domain): 0.32 nM | JAK1/TYK2 selectivity (TYK2-JH2 domain): 372.97 | IC50 (JAK1-JH2 domain): 119 nM

[2H]C([2H])([2H])CC(=O)c1cnc(NC(=O)C2CC2)cc1Nc1nn(C)c2ccc([C@@H](O)C(F)(F)F)c(OC)c12 [Example 54B, (R)-N-(4-((4-methoxy-1-methyl-5-(2,2,2-trifluoro-1-hydroxyethyl)-1H-indazol-3-yl)amino)-5-(propanoyl-3,3,3-d3)pyridin-2-yl)cyclopropanecarboxamide]
IC50 (TYK2-JH2 domain): 0.433 nM | JAK1/TYK2 selectivity (TYK2-JH2 domain): 16.36 | IC50 (JAK1-JH2 domain): 7.08 nM

COC(=O)c1cnc(NC(=O)C2CC2)cc1Nc1nsc2ccc(C(OC)C(F)(F)F)c(OC)c12 (single isomer, unassigned) [Example 67A, Methyl (S*)-6-(cyclopropanecarboxamido)-4-((4-methoxy-5-(2,2,2-trifluoro-1-methoxyethyl)benzo[d]isothiazol-3-yl)amino)nicotinate]
IC50 (TYK2-JH2 domain): 0.21 nM | JAK1/TYK2 selectivity (TYK2-JH2 domain): 88.72 | IC50 (JAK1-JH2 domain): 18.6 nM
